Measurements reported in patent US8367713B2, “Inhibition and dispersion of bacterial biofilms with imidazole-triazole derivatives” (North Carolina State University, priority 2008, dated 2013).
Counter-ions that a name gives are not always drawn.

Experiments:
A. baumannii biofilms = assay: Static bacterial biofilm inhibition assay (crystal violet), A. baumannii; assay type: cell-based, Acinetobacter baumannii; settings: Acinetobacter baumannii, read-out: IC50 of biofilm inhibition, A. baumannii
Procedure: (§1) Each 2-AIT conjugate was initially screened at 300 μM for their ability to inhibit P. aeruginosa PAO1 and PA14 biofilms, A. baumannii biofilms and B. bronchiseptica Rb50 biofilms using a crystal violet reporter assay (G. A. O'Toole, R. Kolter, Molecular Microbiology 1998, 2, 295-304). […] This is an order of magnitude increase in activity when compared to DHS (J. J. Richards, R. W. Huigens, T. E. Ballard, A. Basso, J. Cavanagh, C. Melander, Chemical Communications 2008, 14, 1698-1700). […] 6 also dispersed pre-formed A. baumanni biofilms with an EC50 of 400 μM (FIG. 2A).
(§2) General Static Bacterial Biofilm Inhibition Assay Procedure for A. baumannii, P. aeruginosa, B. bronchiseptica and S. aureus: Biofilm inhibition assays were performed by taking an overnight culture of bacterial strain and subculturing it at an OD600 of 0.01 into the necessary growth liquid medium (LB for A. baumannii, LBNS for P. aeruginosa, Stainer Scholte medium that was supplemented with […] of 100× nutrient complex for B. bronchiseptica and TSBG for S. aureus) for the strain. The compound being tested was then added at a predetermined concentration and then aliquoted (100 μL) into the wells of a 96-well PVC microtiter plate (Wells not used for samples are filled with 100 μL of de-ionized water). Plates were then wrapped in GLAD Press n′ Seal® and incubated under stationary conditions at 37° C. After 24 hours, the media was discarded from the wells and the plates were washed thoroughly with tap water. Plates were then stained with 100 μL of 0.1% solution of crystal violet (CV) and then incubated at an ambient temperature for 30 minutes. Sample plates were then washed with tap water again and the remaining stain was solubilized with 200 μl, of 95% ethanol. Biofilm inhibition was quantitated by measuring the OD540 for each well by transferring 125 μL of the solubilized CV stain into a polystyrene microtiter dish for analysis.

[1] = test system: pre-formed A. baumannii biofilms; assay: Static bacterial biofilm dispersion assay, A. baumannii; assay type: cell-based; settings: Acinetobacter baumannii
Procedure: (§3) General Static Bacterial Biofilm Dispersion Assay Procedure for A. baumannii, P. aeruginosa and S. aureus: Dispersion assays were performed by taking an overnight culture of bacterial strain and subculturing it at an OD600 of 0.01 into the necessary growth liquid medium. The resulting bacterial suspension was aliquoted (100 μL) into the wells of a 96-well PVC microtiter plate. Plates were then wrapped in GLAD Press n′ Seal® followed by an incubation under stationary conditions at an ambient temperature. After 24 hours, the media was discarded from the wells and the plates were washed thoroughly with tap water. Predetermined concentrations of the compound were then made in the same medium used to initially grow the biofilms and then aliquoted (100 μL) into the wells of the 96-well PVC microtiter plate with the established biofilms. Plates were then wrapped in GLAD Press n′ Seal® and incubated under stationary conditions at 37° C. After 24 hours, the media was discarded from the wells and the plates were washed thoroughly with tap water. Plates were then stained with 100 μL of 0.1% solution of crystal violet (CV) and then incubated at room temperature for 30 minutes. Plates were then washed with tap water again and the remaining stain was solubilized with 200 μL of 95% ethanol. Biofilm dispersion was quantitated by measuring the OD540 for each well by transferring 125 μL of the solubilized CV stain into a polystyrene microtiter dish for analysis.

[2] = test system: A. baumannii planktonic growth; assay: Planktonic growth curves and colony counts, A. baumannii; assay type: cell-based, Acinetobacter baumannii; settings: FIGS. 3A, 4A
Procedure: (§4) The OD600 was recorded at 1, 3, 4, 5, 6 and 24 hours.
(§5) General Colony Count Procedure for A. baumannii, P. aeruginosa, B. bronchiseptica and S. aeureus: Colony counts were performed by incubating either bacterial strain in the presence and absence of the test compound at 37° C. in culture tubes until the sample with the absence of the test compound reached an OD600 of 0.40 from a starting OD600 of 0.01. This typically took three to four hours. Once the OD600 of approximately 0.40 was observed, 100 μL were taken from each culture tube from which serial dilutions were made. Then, 10 μL were removed from each serial dilution and plated out on a square gridded petri-dish followed by 16 hours of incubation at 37° C. period (48 hours for B. bronchiseptica) to grow countable colonies. Viable bacteria were quantified through employment of the track-dilution method (Jett et al., Bio Techniques. 1997, 23, 648-650).

MRSA = assay: Biofilm inhibition at 100 μM, MRSA; assay type: cell-based; settings: Staphylococcus aureus, read-out: MRSA % Inhibition
Procedure: (§6) Procedure to Determine the Inhibitory Effect of Test Compounds on E. faecium, MRSA, S. epidermidis, PAO1, PA14, E. Coli and MDRAB Biofilm Formation: Inhibition assays were performed by taking an overnight culture of bacterial strain and subculturing it at an OD600 of 0.01 into the necessary media (brain heart infusion for E. faecium, tryptic soy broth with a 0.5% glucose supplement (TSBG) for MRSA, Luria-Bertani (LB) media for MDRAB, Luria-Bertani media without NaCl (LBNS) for PAO1 and PA14, Luria-Bertani (LB) media for E. coli and tryptic soy broth with a 0.5% glucose supplement and a 3.0% NaCl supplement (TGN) for S. epidermidis. Stock solutions of predetermined concentrations of the test compound were then made in the necessary media. These stock solutions were aliquoted (100 μL) into the wells of the 96-well PVC microtiter plate. Sample plates were then wrapped in GLAD Press n′ Seal® followed by an incubation under stationary conditions for 24 h at 37° C. After incubation, the media was discarded from the wells and the plates were washed thoroughly with water. Plates were then stained with 100 μL of 0.1% solution of crystal violet (CV) and then incubated at ambient temperature for 30 min. Plates were washed with water again and the remaining stain was solubilized with 200 μL of 95% ethanol. A sample of 125 μL of solubilized CV stain from each well was transferred to the corresponding wells of a polystyrene microtiter dish. Biofilm inhibition was quantitated by measuring the OD540 of each well in which a negative control lane wherein no biofilm was formed served as a background and was subtracted out.
Biofilm inhibition has been tested for the following compounds, each of which was tested at a concentration of 100 μM.

E. coli = assay: Biofilm inhibition at 100 μM, E. coli; assay type: cell-based; settings: Escherichia coli
Procedure: as §6, with “Plates were washed with water again and the remaining stain was solubilized with 200 μL of 95% ethanol. A sample of 125 μL of solubilized CV stain from each well was transferred to the corresponding wells of a polystyrene microtiter dish.” left out, “out. […]” for “out.”

[3] = test system: P. aeruginosa PAO1 biofilms; assay: Static bacterial biofilm inhibition assay (crystal violet), PAO1; assay type: cell-based; settings: Pseudomonas aeruginosa
Procedure: as §1, §2

[4] = test system: P. aeruginosa PA14 biofilms; assay: Static bacterial biofilm inhibition assay (crystal violet), PA14; assay type: cell-based; settings: Pseudomonas aeruginosa; P. aeruginosa PA14
Procedure: as §1, §2

[5] = test system: B. bronchiseptica Rb50 biofilms; assay: Static bacterial biofilm inhibition assay (crystal violet), Rb50; assay type: cell-based; settings: Bordetella bronchiseptica, RB50BIOFILMS
Procedure: as §1, §2

[6] = test system: Staphylococcus aureus biofilm; assay: Static bacterial biofilm inhibition assay (crystal violet), S. aureus; assay type: cell-based
Procedure: as §2

[7] = test system: pre-formed P. aeruginosa PAO1 biofilms; assay: Static bacterial biofilm dispersion assay, PAO1; assay type: cell-based; settings: Pseudomonas aeruginosa
Procedure: as §3

[8] = test system: pre-formed P. aeruginosa PA14 biofilms; assay: Static bacterial biofilm dispersion assay, PA14; assay type: cell-based; settings: Pseudomonas aeruginosa
Procedure: as §3

[9] = test system: pre-formed B. bronchiseptica Rb50 biofilms; assay: Static bacterial biofilm dispersion assay, Rb50; assay type: cell-based; settings: Bordetella bronchiseptica
Procedure: as §3
General Static Bacterial Biofilm Dispersion Assay Procedure for B. bronchiseptica: This procedure is identical to the general dispersion procedure described above except that initial biofilm formation in the absence of the test compound was carried out at 37° C.

[10] = test system: pre-formed S. aureus biofilms; assay: Static bacterial biofilm dispersion assay, S. aureus; assay type: cell-based; settings: Staphylococcus aureus
Procedure: as §3

[11] = test system: A. baumannii, PAO1, PA14, Rb50, S. aureus (each bacterial strain); assay: Planktonic growth curves and colony counts, each bacterial strain; assay type: cell-based; settings: each bacterial strain grown in the presence of compound
Procedure: as §4, §5

**Q.** With C/C(=C\c1ccccc1)Cn1cc(CCCc2c[nH]c(N)n2)nn1 [Compound 6, 5-{3-[1-(2-Methyl-3-phenyl-allyl)-1H-[1,2,3]triazol-4-yl]-propyl}-1H-imidazol-2-ylamine hydrochloride] as the molecule, how does the IC50 (A. baumannii biofilms) read?
**A.** 12 µM

**Q.** What about the EC50 [1] of the same molecule?
**A.** 400 µM

**Q.** What about the “effect on planktonic growth (growth curves and colony counts)” value [2] of the same molecule?
**A.** no effect on planktonic growth

**Q.** How did the inhibition at 100 µM (MRSA) turn out when CCCCCCCCCCNC(=O)Cn1cc(CCCc2c[nH]c(N)n2)nn1 [2-{4-[3-(2-amino-1H-imidazol-4-yl)-propyl]-[1,2,3]triazol-1-yl}-N-decyl-acetamide hydrochloride] was run?
**A.** 99 ± 1%

**Q.** And the inhibition at 100 µM (E. coli)?
**A.** 62.7 ± 0.4%

**Q.** With CCCCCCCCCCCCCCNC(=O)Cn1cc(CCCc2c[nH]c(N)n2)nn1 [2-{4-[3-(2-amino-1H-imidazol-4-yl)-propyl]-[1,2,3]triazol-1-yl}-N-tetradecyl-acetamide hydrochloride] as the molecule, how does the inhibition at 100 µM (MRSA) read?
**A.** 90.8 ± 8%

**Q.** What about the inhibition at 100 µM (E. coli) of the same molecule?
**A.** 35.6 ± 0.6%

**Q.** Which IC50 (A. baumannii biofilms) does the source give for C/C(=C\c1ccccc1)Cn1cc(CCCCCCc2c[nH]c(N)n2)nn1 [Compound 12, 4-{6-[1-(2-Methyl-3-phenyl-allyl)-1H-[1,2,3]triazol-4-yl]-hexyl}-1H-imidazol-2-ylamine hydrochloride] here?
**A.** 6.8 µM

**Q.** And the IC50 [3]?
**A.** 2.7 µM

**Q.** And the IC50 [4]?
**A.** 22 µM

**Q.** What about the IC50 [5] of the same molecule?
**A.** 70 µM

**Q.** What about the IC50 [6] of the same molecule?
**A.** 4.6 µM

**Q.** What about the EC50 [1] of the same molecule?
**A.** 36 µM

**Q.** And the EC50 [7]?
**A.** 51 µM

**Q.** What about the EC50 [8] of the same molecule?
**A.** 48 µM

**Q.** And the EC50 [9]?
**A.** 75 µM

**Q.** And the EC50 [10]?
**A.** 37 µM

**Q.** What about the “bactericidal / microbicidal activity (colony counts and growth curves)” value [11] of the same molecule?
**A.** not due to microbicidal activity
